System: pupil
Assay: Response behavior of phenylephrine (pupil dilation) delivered in the presence/absence of the polymeric film
Assay type: in vivo
Details: 0.005% phenylephrine with polymeric film vs 2.5% phenylephrine alone
Procedure: In the groups with such treatments, a 0.1-0.2 g lens was applied to the center of the cornea. 1 drop of dilating agent (phenylephrine) of predetermined concentration was applied at t(0). Size of pupil was measured using a pre-measured device for reference and followed up using the same scale.

With `CNC[C@H](O)c1cccc(O)c1` [phenylephrine, Phenylephrine] the “reduction of drug load at similar efficacy” value was 500 fold.
